The source of these data is ChEMBL document CHEMBL5726960, “Inhibiting neurotransmitter reuptake” (2018).

What is called Ki is the equilibrium dissociation constant of an inhibitor or competing ligand from its target. Read a low Ki as tighter binding.

Assay [1] has as its target Sodium-dependent dopamine transporter (Homo sapiens, UniProt Q01959). Description: On the day of the experiment, the cells were removed from −80° C. or liquid nitrogen and thawed in a room temperature water bath. The cells were dilute to about 1-2E+06 with Freestyle medium. A 1 mL sample (1:2 dilution) was prepared, and the cells were counted. The cells were spun at 1100 rpm for 5 minutes, and the medium was aspirated off. The cells were resuspend in medium at 1.5E+06 cells/mL for about 60,000 cells per well. 40 μL of cells were dispensed per well in the Biocoat plates. […] The neurotransmitter transporter dye was prepared in AB prior to use. It counts as cell-based.

Assay [2] addresses Sodium-dependent noradrenaline transporter (Homo sapiens, UniProt P23975). Description: On the day of the experiment, the cells were removed from −80° C. or liquid nitrogen and thawed in a room temperature water bath. The cells were dilute to about 1-2E+06 with Freestyle medium. A 1 mL sample (1:2 dilution) was prepared, and the cells were counted. The cells were spun at 1100 rpm for 5 minutes, and the medium was aspirated off. The cells were resuspend in medium at 1.5E+06 cells/mL for about 60,000 cells per well. 40 μL of cells were dispensed per well in the Biocoat plates. The plates were spun at 1100 rpm for 1 minute to improve homogeneity of the cell layer and were incubated at 37° C. for a minimum of 3 hours. The class given is cell-based.

Sodium-dependent noradrenaline transporter, sequence (P23975 whole entry): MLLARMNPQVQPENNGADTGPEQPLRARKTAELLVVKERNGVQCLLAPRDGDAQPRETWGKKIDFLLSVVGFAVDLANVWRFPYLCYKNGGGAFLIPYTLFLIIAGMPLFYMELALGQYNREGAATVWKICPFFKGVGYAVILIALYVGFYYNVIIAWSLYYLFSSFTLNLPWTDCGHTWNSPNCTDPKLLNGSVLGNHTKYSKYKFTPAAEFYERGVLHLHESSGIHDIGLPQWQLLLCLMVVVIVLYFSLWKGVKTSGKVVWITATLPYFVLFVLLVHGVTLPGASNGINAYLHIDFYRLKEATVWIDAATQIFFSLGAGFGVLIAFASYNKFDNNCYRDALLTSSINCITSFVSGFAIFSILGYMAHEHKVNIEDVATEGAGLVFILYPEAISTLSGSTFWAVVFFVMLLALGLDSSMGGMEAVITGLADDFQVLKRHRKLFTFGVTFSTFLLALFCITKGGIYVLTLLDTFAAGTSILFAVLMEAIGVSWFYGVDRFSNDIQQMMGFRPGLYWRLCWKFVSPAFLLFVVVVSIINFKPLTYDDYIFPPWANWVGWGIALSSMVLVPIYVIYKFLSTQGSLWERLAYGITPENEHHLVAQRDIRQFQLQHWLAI
Sodium-dependent dopamine transporter, sequence (Q01959 whole entry): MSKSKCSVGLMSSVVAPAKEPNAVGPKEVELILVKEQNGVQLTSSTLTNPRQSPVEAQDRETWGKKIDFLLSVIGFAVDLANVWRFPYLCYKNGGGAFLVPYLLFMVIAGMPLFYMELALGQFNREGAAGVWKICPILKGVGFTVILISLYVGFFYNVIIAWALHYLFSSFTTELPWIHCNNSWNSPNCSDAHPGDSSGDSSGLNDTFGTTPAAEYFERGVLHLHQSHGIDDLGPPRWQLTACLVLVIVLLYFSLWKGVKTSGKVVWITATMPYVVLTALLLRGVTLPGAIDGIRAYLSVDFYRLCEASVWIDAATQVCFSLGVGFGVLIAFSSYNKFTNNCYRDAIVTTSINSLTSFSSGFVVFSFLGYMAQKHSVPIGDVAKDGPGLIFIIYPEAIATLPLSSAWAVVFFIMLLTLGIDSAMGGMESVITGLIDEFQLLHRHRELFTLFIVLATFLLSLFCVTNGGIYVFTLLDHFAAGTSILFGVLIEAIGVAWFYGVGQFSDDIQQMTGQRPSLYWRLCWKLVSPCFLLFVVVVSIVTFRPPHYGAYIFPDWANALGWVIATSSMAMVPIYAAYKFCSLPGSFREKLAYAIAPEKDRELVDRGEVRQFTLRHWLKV

Regarding `CNCC(c1ccc(F)c(Cl)c1)[C@H](O)c1ccccc1` (some centres not stated), the Ki in assay [1] is 56.6 nM; in assay [2], 10.2 nM.
